Values quoted from earlier work as cited in patent US5817628A, “Dynorphin a suppression of natural killer cell activity” (The Rockefeller University, priority 1992, dated 1998).

Test system: NK cells
Conditions: reported by other investigators

Compound	effect on NK activity in vitro (literature)
β-endorphin (YGGFMTSEKSQTPLVTLFKNAIIKNAYKKGE; Beta-endorphin; UniProt P01189 237-267, looked up) [endogenous opioid]	increases NK cell activity in vitro
Met-enkephalin	appears to enhance NK activity
CCC(=O)C(CC(C)N(C)C)(c1ccccc1)c1ccccc1 (stereo not shown) [methadone]	observed in vitro only at methadone concentrations many orders of magnitude higher than those observed during any clinical use of methadone
CN1CC[C@]23c4c5ccc(O)c4O[C@H]2[C@@H](O)C=C[C@H]3[C@H]1C5 [Morphine]	enhanced NK activity in one study
